Reference: patent US11753407B2, “Compounds for treating spinal muscular atrophy” (PTC Therapeutics, Inc., priority 2012, dated 2023)

Test system: SMN2 minigene mRNA (SMN2-A minigene) in HEK293H cells
Assay: SMN2 minigene mRNA splicing RT-qPCR assay in cultured cells
Assay type: cell-based, human
Details: for SMN2 minigene FL mRNA: HEK293H cells with SMN2 minigene, rising concentrations, 24 hr, relative to vehicle (FIG. 3); for EC (1.5-fold increase): Homo sapiens, HEK293-H, concentration increasing full length SMN2 mRNA 1.5-fold relative to vehicle-treated cells, HEK293H cells with SMN2-A minigene, 24 hours, 7-point concentration data, read-out: EC1.5x for production of full length SMN2 mRNA; for exon 7 inclusion: SMN2 minigene, relative to untreated cells (FIG. 3)
Outline: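 Potency reflects the concentration that lifts full-length SMN2 minigene mRNA 1.5-fold above vehicle in stably transfected HEK293H cells after 24 h of treatment. Transcript abundance came from RT-qPCR as (1+E)^−Ct, normalized to GAPDH; endogenous SMN1/SMN2 are not detected.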

| Compound | SMN2 minigene FL mRNA | EC (1.5-fold increase) [µM] | exon 7 inclusion |
| --- | --- | --- | --- |
| COc1ccc(-c2cc(=O)n3cc(N4CCNCC4)ccc3n2)cc1OC [Cpd 6, 2-(3,4-dimethoxyphenyl)-7-(piperazin-1-yl)-4H-pyrido[1,2-a]pyrimidin-4-one] | increased SMN2 minigene FL mRNA at low concentrations | < 0.1 | fully restored exon 7 inclusion |
| Cc1cn2nc(-c3cc(=O)n4cc(N5CCN(C)CC5)ccc4n3)cc2c(C)n1 [Cpd 170, 2-(4,6-dimethylpyrazolo[1,5-a]pyrazin-2-yl)-7-(4-methylpiperazin-1-yl)-4H-pyrido[1,2-a]pyrimidin-4-one] | increased SMN2 minigene FL mRNA at low concentrations | < 0.1 | fully restored exon 7 inclusion |
